Results from PubChem BioAssay (NCI).
Several values for one entry are separate records, joined by “and”; a condition that tells them apart may be missing. Identical values can stand only once.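 Values below derive from 48-hour exposures of cells grown in 96-well plates, with endpoints linearly interpolated between the two concentrations bracketing the appropriate inhibition level. GI50 is the concentration that inhibits growth by half. TGI marks complete inhibition of growth.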

Tests used:
Assay in all cases: NCI-60 cell line screen, 48 h
[1] = test system: 786-0 renal
[2] = test system: BT-549 breast
[3] = test system: CAKI-1 renal
[4] = test system: MDA-MB-231 breast
[5] = test system: OVCAR-4 ovarian
[6] = test system: SF-539 CNS
[7] = test system: SK-MEL-28 melanoma
[8] = test system: SW-620 colon

| SMILES | GI50 [1] | TGI [1] | GI50 [2] | TGI [2] | GI50 [3] | TGI [3] | GI50 [4] | TGI [4] | GI50 [5] | TGI [5] | GI50 [6] | TGI [6] | GI50 [7] | TGI [7] | GI50 [8] | TGI [8] |
| --- | --- | --- | --- | --- | --- | --- | --- | --- | --- | --- | --- | --- | --- | --- | --- | --- |
| O=C(NN1C(=O)CSC12CCCCC2)c1[nH]c2ccc(F)cc2c1-c1ccccc1 | 26 µM | 49.8 µM | 33.8 µM | > 100 µM | 31.9 µM | > 100 µM | 18.8 µM | 45.8 µM | 22.9 µM | 70.9 µM | 21.8 µM | 37.2 µM | 28.2 µM | 93.2 µM | 26.6 µM | 87.5 µM |
| Nc1ncnc2[nH]ncc12 | 0.623 µM | 21.2 µM | 1.98 µM | 74.9 µM | 0.11 µM | 1.44 µM | 0.577 µM | > 100 µM | 0.277 µM | 37.9 µM | 4.17 µM | > 100 µM | 2.77 µM | 99 µM | 0.646 µM | > 100 µM |
| COc1ccc(-c2n[nH]nc2-c2cc(OC)c3c(c2OC)OCO3)cc1 | 3.07 µM | 71.9 µM | 0.544 µM | 25.9 µM | 0.839 µM | > 60.1 µM | 1.71 µM | 17.4 µM | 4.81 µM | > 76.3 µM | 1.32 µM | 5.4 µM | 1.95 µM | > 100 µM | 0.348 µM | > 95.6 µM |
| O=C(/C(=C/c1ccccc1)CN1CCCCC1)c1ccccc1 | 1.79 µM | 3.64 µM | 1.92 µM | 3.85 µM | 0.337 µM | 2.84 µM | 1.96 µM | 5.75 µM | 2.05 µM | 9.53 µM | 2.8 µM | 10.1 µM | 1.63 µM | 3.5 µM | 0.398 µM | 1.53 µM |
| O=C(c1ccccc1)C(CN1CCOCC1)c1ccccc1 (stereo not given) | 2.72 µM | 6.93 µM | 1.48 µM | 3.77 µM | 0.565 µM | 1.95 µM | 1.83 µM | 5.05 µM | 3.88 µM | 19.3 µM | 2.11 µM | 4.47 µM | 1.76 µM | 3.35 µM | 0.372 µM | 1.28 µM |
| O=S(=O)(NCCNC/C=C/c1ccc(Br)cc1)c1cccc2cnccc12 | 4.22 µM and 9.27 µM | 19.8 µM and 21.9 µM | 3.09 µM and 7.89 µM | 12.7 µM and 21.6 µM | 4.15 µM and 9.99 µM | 18 µM and 27 µM | 8.1 µM and 14.2 µM | 21.7 µM and 29.7 µM | 5.51 µM and 7.36 µM | 18.6 µM and 23.6 µM | 7.74 µM and 9.35 µM | 21.9 µM and 22.6 µM | 7.33 µM and 11.2 µM | 20 µM and 25.4 µM | 12.6 µM and 16.8 µM | 27.6 µM and 32.4 µM |
| CN1CCN(Cc2ccc(NC(=O)c3cncc(C#Cc4cnc(N)c5ccncc45)c3)cc2C(F)(F)F)CC1 | 1.73 µM | 7.48 µM | 2.22 µM | > 46.6 µM | 1.59 µM | > 16.3 µM | 0.307 µM | 1.26 µM | 0.283 µM | 6.32 µM | 0.484 µM | 2.03 µM | 0.245 µM | 2.18 µM | 0.418 µM | 3.46 µM |
| CN(C)CCCN1c2ccccc2CCc2ccc(Cl)cc21 | 5.5 µM | 19.2 µM | 10.4 µM | 22.2 µM | 3.88 µM | 16.8 µM | 3.06 µM | 12 µM | 3.64 µM | 16.4 µM | 5.59 µM | 17.7 µM | 1.61 µM | 3.07 µM | 3.92 µM | 16 µM |
| Cc1ccc(C(=O)Nc2ccc(CN3CCN(C)CC3)c(C(F)(F)F)c2)cc1C#Cc1cnc2cccnn12 | 0.428 µM and 0.903 µM | 1.69 µM and 4.1 µM | 1.15 µM and 2.57 µM | 2.45 µM and 5.19 µM | 0.274 µM and 0.388 µM | 1.09 µM and 1.82 µM | 0.215 µM and 0.317 µM | 1.05 µM and 1.24 µM | 0.171 µM and 0.479 µM | 1.64 µM and 4.32 µM | 0.255 µM and 0.669 µM | 0.722 µM and 2.18 µM | 0.367 µM and 0.742 µM | 1.51 µM and 3.7 µM | 0.283 µM and 0.594 µM | 1.52 µM and 4.12 µM |
| C=CC(=O)Nc1cccc(C)c1Nc1cc(-c2cccnc2Cc2c(C)c(OC)cc(OC)c2C)ncn1 | 10.2 µM | 39.6 µM | 6.23 µM | 29.6 µM | 9.97 µM | > 100 µM | 5.65 µM | 70.9 µM | 20.6 µM | > 100 µM | 3.47 µM | 38.2 µM | 16.9 µM | 69.2 µM | 10.7 µM | 41.7 µM |
| Cc1cc(N/N=C/c2nc(-c3ccc(Br)cc3)oc2C)c2cc(Cl)ccc2n1 | > 100 µM | > 100 µM | > 100 µM | > 100 µM | > 100 µM | > 100 µM | > 100 µM | > 100 µM | > 100 µM | > 100 µM | > 100 µM | > 100 µM | > 100 µM | > 100 µM | > 100 µM | > 100 µM |
| CCN1CCC(CCOC)(CN2c3ccccc3Sc3ccc(Cl)cc32)C1 (stereo not given) | 1.81 µM | 3.39 µM | 1.88 µM | 3.68 µM | 1.64 µM | 3.11 µM | 1.86 µM | 3.67 µM | 2.72 µM | 8.66 µM | 1.76 µM | 3.51 µM | 1.97 µM | 3.62 µM | 1.7 µM | 3.24 µM |
| C[C@]12CC[C@H]3[C@@H](CCC4=CC(=O)CC[C@@H]43)[C@@H]1CC[C@@H]2OC(=O)CCc1ccccc1 | 23.9 µM | 50.8 µM | 17.5 µM | 33.9 µM | 12 µM | 26.2 µM | 18.9 µM | 42.2 µM | 18.8 µM | 40.4 µM | 16.3 µM | 30.5 µM | 16.8 µM | 37 µM | 20.3 µM | 47.2 µM |
| N#Cc1c(N/N=C/c2c(Cl)cccc2Cl)nc(N)nc1N1CCOCC1 | 5.82 µM | > 100 µM | 18 µM | > 100 µM | 12.1 µM | > 100 µM | 11.7 µM | 56.1 µM | > 100 µM | > 100 µM | 7.24 µM | 30.4 µM | 82.1 µM | > 100 µM | 6.11 µM | > 100 µM |
| O=C1C(=O)c2c(nc3ccc(Cl)cn23)-c2ccccc21 | 0.775 µM | 1.82 µM | 0.502 µM | 1.21 µM | 0.477 µM | 1.04 µM | 0.296 µM | 3.95 µM | 0.207 µM | 0.463 µM | 0.189 µM | 0.358 µM | 0.253 µM | 0.557 µM | 0.292 µM | 1.03 µM |
